Data as given in paper PMC9269301, “Phytochemical Analysis, Antioxidant, Antimicrobial, and Cytotoxic Activity of Different Extracts of Xanthoparmelia stenophylla Lichen from Stara Planina, Serbia” (Plants, 2022).
Marks after values point to notes of the source that are not given here.

Legend:
C. albicans ATCC 10231 = assay: Microdilution with resazurin, antifungal; format: cell-based, Candida albicans; conditions: extracts and usnic acid
Description: (§1) The tested methanol, acetone, and n-hexane extracts, as well as the component (usnic acid) of X. stenophylla, were dissolved in 10% dimethyl sulfoxide (DMSO) and then diluted into the nutrient liquid medium. DMSO was obtained from Acros Organics (Fair Lawn, NJ, USA). Resazurin was obtained from Alfa Aesar GmbH & Co. (KG, Karlsruhe, Germany).
(§2) The antimicrobial activity of the extracts and components was tested against 19 microorganisms. The experiment involved 15 strains of bacteria (i.e., 6 standard strains: Staphylococcus aureus ATCC 6538, Bacillus subtilis ATCC 6633, Proteus mirabilis ATCC 12453, Pseudomonas aeruginosa ATCC 27853, Klebsiella pneumoniae ATCC 70063, and Escherichia coli ATCC 25922; 9 isolates: Staphylococcus aureus, Escherichia coli, Salmonella enterica, Salmonella Typhimurium, Proteus mirabilis, Klebsiella pneumoniae, Pseudomonas aeruginosa, Bacillus subtilis, and Bacillus cereus). In addition, four fungal strains (i.e., two standard strains: Candida albicans ATCC 10231 and Aspergillus niger ATCC 16888; two isolates: Saccharomyces cerevisiae and Candida albicans) were tested. All isolates were a generous gift from the Institute of Public Health, Kragujevac. The other microorganisms were provided from the collection held by the Microbiology Laboratory Faculty of Science, University of Kragujevac.
(§3) The bacterial suspensions were prepared by the direct colony method. The turbidity of the initial suspension was adjusted using a densitometer (DEN-1, BioSan, Riga, Latvia). When adjusted to the turbidity of the 0.5 McFarland’s standard (Andrews, 2005) the bacteria suspension contained approximately 10^8 colony-forming units (CFU)/mL, and the suspension of yeast contained 10^6 CFU/mL; 1:100 dilutions of the initial suspension were additionally prepared in sterile 0.85% saline. The suspensions of fungal spores were prepared by gentle stripping of spores from slopes with growing mycelia. The resulting suspensions were 1:1000 diluted in sterile 0.85% saline.
(§4) Antimicrobial activity was tested by determining the minimum inhibitory concentrations (MICs) and minimum microbicidal concentrations (MBCs) using the microdilution plate method with resazurin [56]. The 96-well plates were prepared by dispensing 100 μL of Mueller–Hinton broth for bacteria and Sabouard broth for fungi into each well. A 10 μL aliquot from the stock solution of the tested extract or component was added to the first row of the plate. Then, two-fold serial dilutions were performed using a multichannel pipette. The obtained concentration range was from 10 to 0.08 mg/mL. The method is described in detail in [76].
(§5) Each test included growth control and sterility control.
(§6) Minimum microbicidal concentrations were determined by plating 10 μL of samples from wells where no indicator color change or no mycelia growth was recorded on a nutrient agar medium. At the end of the incubation period, the lowest concentration with no growth (no colony) was defined as the minimum microbicidal concentration.

C. albicans (isolate) = assay: Microdilution with resazurin, antifungal; format: cell-based, Candida albicans; conditions: extracts and usnic acid
Description: as §1, §2, §3, §4, §5, §6

[1] = test system: S. aureus ATCC 6538 biofilm; assay: Biofilm metabolic activity by resazurin; format: cell-based, Staphylococcus aureus; conditions: at some concentrations, Figure 4
Description: (§7) Resazurin (7-hydroxy-3H-phenoxazin-3-one-10-oxide) is a viability dye used to assess the metabolic activity of biofilms. After incubation at 37 °C/48 h, a volume of 10 µL of resazurin indicator solution was added to each well. Plates were incubated in the dark for 3 h at 37 °C. The OD was measured at 590 nm using an enzyme-linked immunosorbent assay (ELISA) plate reader. In addition, the color change from purple to pink indicated the metabolic activity of the formed biofilm.

[2] = test system: HCT 116 cells (colon cancer); assay: MTT assay; format: cell-based, human
S. cerevisiae (isolate) = assay: Microdilution with resazurin, antifungal; format: cell-based, Saccharomyces cerevisiae; conditions: extracts and usnic acid
Description: as §1, §2, §3
as §4, with “[76]. […]” for “[76].”
Minimum microbicidal concentrations were determined by plating 10 μL of samples from wells where no indicator color change or no mycelia growth was recorded on a nutrient agar medium. […]

P. aeruginosa biofilm = assay: Biofilm metabolic activity by resazurin; format: cell-based, Pseudomonas aeruginosa; conditions: Figure 3
Description: as §7

A. niger ATCC 16888 = assay: Microdilution with resazurin, antifungal; format: cell-based, Aspergillus niger; conditions: extracts and usnic acid
Description: as §1, §2, §3, §4, §5, §6

[3] = DPPH radical scavenging activity; format: biochemical; conditions: mean ± SD, triplicate
Description: All chemicals for the antioxidant activity test were purchased from Sigma Aldrich. All measurements were conducted in triplicate, and a Shimadzu UV-1800 spectrophotometer was used for all measurements during antioxidant activity experiments. The IC50 value was used for comparing different radical scavenging effects between investigated extracts, isolated compounds, and positive controls. […] [71] with certain modifications. […] The solution was prepared ex tempore and stored in a tinted bottle in the refrigerator until the experiments were performed. […] The reaction mixture was vortexed and allowed to incubate in the dark for one hour, after which the absorbance was measured at 517 nm relative to the blank. […] Ac stands for absorbance of the control (which contains all reagents, except the tested extract or compound), and As is the absorbance of the sample.

Substance: usnic acid
- MFC (C. albicans ATCC 10231): <10000 µg/mL
- MIC (C. albicans ATCC 10231): 10000 µg/mL
- MFC (C. albicans (isolate)): <10000 µg/mL
- MIC (C. albicans (isolate)): 10000 µg/mL
- Metabolic activity of biofilm compared to the growth control [1]: lower
- GI50 (50% growth inhibition) ([2]; HCT 116, 24 h): 41.94 ± 3.12 µg/mL
- IC50 ([2]; HCT 116, 24 h): >100 µg/mL
- TGI (total growth inhibition) ([2]; HCT 116, 24 h): 79.12 ± 1.18 µg/mL
- GI50 (50% growth inhibition) ([2]; HCT 116, 48 h): 27.21 ± 1.94 µg/mL
- IC50 ([2]; HCT 116, 48 h): 83.99 ± 4.22 µg/mL
- TGI (total growth inhibition) ([2]; HCT 116, 48 h): 63.58 ± 0.90 µg/mL
- GI50 (50% growth inhibition) ([2]; HCT 116, 72 h): 15.87 ± 2.89 µg/mL
- IC50 ([2]; HCT 116, 72 h): 23.79 ± 2.10 µg/mL
- TGI (total growth inhibition) ([2]; HCT 116, 72 h): 64.91 ± 1.44 µg/mL
- MFC (S. cerevisiae (isolate)): 10000 µg/mL
- MIC (S. cerevisiae (isolate)): 5000 µg/mL
- Metabolic activity of biofilm compared to the growth control (P. aeruginosa biofilm): higher
- MFC (A. niger ATCC 16888): <10000 µg/mL
- MIC (A. niger ATCC 16888): 10000 µg/mL
- DPPH Radical Scavenging Activity (IC50) [3]: 64.92 ± 1.06 ^a,b,c,d µg/mL
